How the values were obtained:
[1] = molecular target: T1, BACE1 (Homo sapiens, UniProt P56817); assay: Cellular Aβ-lowering assay (Aβ40 ELISA, HEK293 cells expressing human APP695); format: cell-based; conditions: HEK293 cells stably expressing human APP695; Aβ40 in supernatant after 18-20 hrs; read-out: BACE1 cell act. Aβ40 IC50
T1 construct: Human HEK293 cells which are stably transfected with a vector expressing a cDNA of the human APP wt gene (APP695); endogenous in cells; host or cells: HEK293 stably expressing human APP695 wt
Method: Human HEK293 cells which are stably transfected with a vector expressing a cDNA of the human APP wt gene (APP695) were used to assess the potency of the compounds in a cellular assay. The cells were seeded in 96-well microtiter plates in cell culture medium (Iscove, plus 10% (v/v) fetal bovine serum, glutamine, penicillin/streptomycin) to about 80% confluence and the compounds were added at a 10× concentration in 1/10 volume of medium without FCS containing 8% DMSO (final concentration of DMSO was kept at 0.8% v/v). After 18-20 hrs incubation at 37° C. and 5% CO2 in a humidified incubator the culture supernatant was harvested for the determination of Aβ40 concentrations. 96 well ELISA plates (e.g., Nunc MaxiSorb) were coated with monoclonal antibody which specifically recognize the C-terminal end of Aβ40^10. After blocking of non-specific binding sites with e.g. 1% BSA and washing, the culture supernatants were added in suitable dilutions together with a horseradish peroxidase-coupled Aβ detection antibody (e.g., antibody 4G8, Senetek, Maryland Heights, Mo.) and incubated for 5 to 7 hrs. Subsequently the wells of the microtiter plate were washed extensively with Tris-buffered saline containing 0.05% Tween 20 and the assay was developed with tetramethylbenzidine/H2O2 in citric acid buffer. After stopping the reaction with one volume 1 N H2SO4 the reaction was measured in an ELISA reader at 450 nm wavelength. The concentrations of Aβ in the culture supernatants were calculated from a standard curve obtained with known amounts of pure Aβ peptide.

[2] = molecular target: T2, CYP2C9 (Homo sapiens, UniProt P11712); assay: CYP inhibition assay, human liver microsomes, diclofenac; format: in vitro ADME; conditions: read-out: CYP IC50 2C9
T2 construct: 0.2 mg/ml pooled human liver microsomes; from tissue; host or cells: pooled human liver microsomes
Method: (§1) Inhibition of cytochromes P450 (CYPs) 2C9, 2D6 and 3A4 was assessed using human liver microsomes and CYP-selective substrate metabolism reactions. 50 μl incubations were made up containing (finally) 0.2 mg/ml pooled human liver microsomes, 5 μM substrate (diclofenac for CYP2C9 [4′hydroxylase], dextromethorphan for CYP2D6 [O-demethylase] or midazolam for CYP3A4 [1′hydroxylase]), 0.25 μL DMSO containing test inhibitor and NADPH regenerating system. Test inhibitor concentrations of 50, 16.7, 5.6, 1.9, 0.6 and 0.2 μM were assessed in singlicate. Incubations were prewarmed to 37° C. for 10 minutes before initiation by addition of NADPH regenerating system. Incubations were quenched after 5 minutes (20 minutes for dextromethorphan) by addition of 50 μl cold acetonitrile containing 20 ng/ml 4-OH-diclofenac-13C6, 20 ng/mL dextrorphan-D3 and 20 ng/mL 1-OH-midazolam-D4. Quenched incubates were stored at −20° C. for at least 1 hour before centrifugation (20,000×g, 20 minutes). Supernatants were removed and diluted 1:1 with water prior to analysis using a RapidFire sample injector system and API4000 mass spectrometer. Peak areas for substrate, metabolite and stable-labelled metabolite standard were determined using MS/MS. The peak area ratios between the metabolite generated by the enzymatic reaction and the internal standard were used in subsequent calculations. The percentage of (DMSO) control activity was calculated for each incubate and IC50 values estimated by non-linear regression. Sulfaphenazole, quinidine or ketoconazole were tested in each CYP2C9, CYP2D6 or CYP3A4 inhibition experiment, respectively, to ensure assay sensitivity and reproducibility. (Validated assays for human cytochrome P450 activities^11)

[3] = molecular target: T3, cathepsin D (from human liver) (Homo sapiens, UniProt P07339); assay: Cathepsin D fluorescent substrate kinetic assay; format: biochemical; conditions: pH 5.5
T3 construct: cathepsin D (from human liver, Calbiochem); purchased Calbiochem; host or cells: human liver (tissue-purified)
Description: (§2) The MR121 fluorescence assays described below are based on the fact that MR121 forms a non-fluorescent ground state complex with tryptophan. In solution this formation occurs at millimolar concentrations of tryptophan. The mechanism can be used to design a generic biochemical assay for proteases. A substrate peptide is labeled at the N-terminus with tryptophan and at the C-terminus with the fluorophore MR121 (for cathepsin D the 10 amino acid peptide WTSVLMAAPC-MR121 was used; for cathepsin E, MR121-CKLVFFAEDW was used). In absence of protease activity, the substrates remain intact and the MR121 fluorescence is reduced by the high local Trp-concentration. If the substrates are cleaved by the enzymes the MR121 fluorescence is recovered.
(§3) The fluorescent substrate cathepsin D and cathepsin E kinetic assays were performed at room temperature in 384-well microtiter plates (black with clear flat bottom, non binding surface plates from Corning) in a final volume of 51 μl. The test compounds were serially diluted in DMSO (15 concentrations, 1/3 dilution steps) and 1 μl of diluted compounds were mixed for 10 min with 40 μl of cathepsin D (from human liver, Calbiochem) diluted in assay buffer (100 mM sodium acetate, 0.05% BSA, pH 5.5; final concentration: 200 nM) or with 40 μl of recombinant human cathepsin E (R&D Systems) diluted in assay buffer (100 mM sodium acetate, 0.05% BSA, pH 4.5; final concentration: 0.01 nM). After addition of 10 μl of the cathepsin D substrate WTSVLMAAPC-MR121 diluted in cathepsin D assay buffer (final concentration: 300 nM) or […] cathepsin E substrate MR121-CKLVFFAEDW diluted in cathepsin E assay buffer (final concentration: 300 nM), the plates were strongly shaken for 2 minutes. The enzymatic reaction was followed in a plate: vision reader (Perkin Elmer) (excitation wavelength: 630 nm; emission: 695 nm) for at least 30 minutes in a kinetic measurement detecting an increase of MR121 fluorescence during the reaction time. The slope in the linear range of the kinetic was calculated and the IC50 of the test compounds were determined using a four parameter equation for curve fitting.

[4] = molecular target: T4, CYP2D6 (Homo sapiens, UniProt P10635); assay: CYP inhibition assay, human liver microsomes, dextromethorphan; format: in vitro ADME; conditions: read-out: CYP IC50 2D6
T4 construct: 0.2 mg/ml pooled human liver microsomes; from tissue; host or cells: pooled human liver microsomes
Method: as §1

[5] = molecular target: T5, recombinant human cathepsin E (Homo sapiens, UniProt P14091); assay: Cathepsin E fluorescent substrate kinetic assay; format: biochemical; conditions: pH 4.5
T5 construct: purchased R&D Systems
T5 sequence (P14091 54-396): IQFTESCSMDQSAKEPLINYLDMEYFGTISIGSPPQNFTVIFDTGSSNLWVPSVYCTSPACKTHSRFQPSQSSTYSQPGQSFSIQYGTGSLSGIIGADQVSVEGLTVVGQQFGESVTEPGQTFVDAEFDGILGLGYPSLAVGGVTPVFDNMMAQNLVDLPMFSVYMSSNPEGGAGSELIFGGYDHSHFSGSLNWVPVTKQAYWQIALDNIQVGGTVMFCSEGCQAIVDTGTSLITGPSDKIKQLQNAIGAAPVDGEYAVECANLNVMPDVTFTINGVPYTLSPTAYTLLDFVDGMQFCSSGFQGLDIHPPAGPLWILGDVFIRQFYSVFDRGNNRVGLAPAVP
Description: as §2, §3

[6] = molecular target: T6, CYP3A4 (Homo sapiens, UniProt P08684); assay: CYP inhibition assay, human liver microsomes, midazolam; format: in vitro ADME; conditions: read-out: CYP IC50 3A4
T6 construct: 0.2 mg/ml pooled human liver microsomes; from tissue; host or cells: pooled human liver microsomes
Method: as §1

T1 sequence (P56817 46-501): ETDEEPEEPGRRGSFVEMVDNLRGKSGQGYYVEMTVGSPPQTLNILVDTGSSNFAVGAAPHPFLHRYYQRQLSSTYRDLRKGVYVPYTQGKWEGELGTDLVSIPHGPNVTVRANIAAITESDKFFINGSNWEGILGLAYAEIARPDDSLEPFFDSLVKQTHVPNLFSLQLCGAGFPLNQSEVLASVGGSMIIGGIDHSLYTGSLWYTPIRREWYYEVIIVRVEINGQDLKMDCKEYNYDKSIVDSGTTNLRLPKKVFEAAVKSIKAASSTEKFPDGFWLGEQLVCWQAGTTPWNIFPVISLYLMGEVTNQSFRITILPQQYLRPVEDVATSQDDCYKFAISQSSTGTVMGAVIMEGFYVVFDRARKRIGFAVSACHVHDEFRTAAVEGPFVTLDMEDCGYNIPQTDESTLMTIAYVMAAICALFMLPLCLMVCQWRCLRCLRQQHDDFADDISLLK
T3 sequence (P07339 65-162 limits assumed): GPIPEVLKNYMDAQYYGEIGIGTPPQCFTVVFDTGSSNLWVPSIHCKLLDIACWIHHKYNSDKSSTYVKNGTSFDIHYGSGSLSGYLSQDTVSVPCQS
T3 sequence (P07339 169-412 limits assumed): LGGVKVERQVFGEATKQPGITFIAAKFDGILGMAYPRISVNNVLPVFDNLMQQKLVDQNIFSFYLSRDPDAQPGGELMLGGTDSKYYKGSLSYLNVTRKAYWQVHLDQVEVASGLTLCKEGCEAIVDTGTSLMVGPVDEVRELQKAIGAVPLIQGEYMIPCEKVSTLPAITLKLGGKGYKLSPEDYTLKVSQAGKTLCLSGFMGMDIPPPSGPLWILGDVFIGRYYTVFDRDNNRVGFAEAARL
T6 sequence (P08684 whole entry): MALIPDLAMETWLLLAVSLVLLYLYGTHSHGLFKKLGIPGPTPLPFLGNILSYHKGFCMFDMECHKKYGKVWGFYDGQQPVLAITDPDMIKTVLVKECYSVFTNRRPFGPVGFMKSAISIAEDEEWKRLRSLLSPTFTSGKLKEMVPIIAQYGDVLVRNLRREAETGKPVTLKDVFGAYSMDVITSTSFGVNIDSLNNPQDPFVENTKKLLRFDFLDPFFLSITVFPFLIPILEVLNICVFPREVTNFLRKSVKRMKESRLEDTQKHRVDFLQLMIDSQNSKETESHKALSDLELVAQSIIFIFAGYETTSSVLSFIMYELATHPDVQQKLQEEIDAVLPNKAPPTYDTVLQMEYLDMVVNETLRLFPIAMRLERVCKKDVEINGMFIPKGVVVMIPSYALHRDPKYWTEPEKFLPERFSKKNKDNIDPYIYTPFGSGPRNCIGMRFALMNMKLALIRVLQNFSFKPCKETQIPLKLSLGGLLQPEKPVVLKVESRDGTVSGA
T2 sequence (P11712 whole entry): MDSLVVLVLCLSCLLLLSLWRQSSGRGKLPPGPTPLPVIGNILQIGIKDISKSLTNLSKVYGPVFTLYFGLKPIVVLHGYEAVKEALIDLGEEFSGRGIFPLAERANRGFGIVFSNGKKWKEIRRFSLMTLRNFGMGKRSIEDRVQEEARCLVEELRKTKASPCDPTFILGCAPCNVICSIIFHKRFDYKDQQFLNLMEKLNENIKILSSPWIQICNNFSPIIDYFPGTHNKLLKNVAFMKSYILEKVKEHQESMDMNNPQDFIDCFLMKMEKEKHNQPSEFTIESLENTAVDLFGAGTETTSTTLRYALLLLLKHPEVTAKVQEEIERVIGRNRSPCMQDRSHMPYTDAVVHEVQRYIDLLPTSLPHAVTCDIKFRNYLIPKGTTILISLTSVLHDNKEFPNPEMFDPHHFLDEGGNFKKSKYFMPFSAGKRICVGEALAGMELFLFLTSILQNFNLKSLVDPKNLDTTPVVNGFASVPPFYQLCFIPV
T4 sequence (P10635 whole entry): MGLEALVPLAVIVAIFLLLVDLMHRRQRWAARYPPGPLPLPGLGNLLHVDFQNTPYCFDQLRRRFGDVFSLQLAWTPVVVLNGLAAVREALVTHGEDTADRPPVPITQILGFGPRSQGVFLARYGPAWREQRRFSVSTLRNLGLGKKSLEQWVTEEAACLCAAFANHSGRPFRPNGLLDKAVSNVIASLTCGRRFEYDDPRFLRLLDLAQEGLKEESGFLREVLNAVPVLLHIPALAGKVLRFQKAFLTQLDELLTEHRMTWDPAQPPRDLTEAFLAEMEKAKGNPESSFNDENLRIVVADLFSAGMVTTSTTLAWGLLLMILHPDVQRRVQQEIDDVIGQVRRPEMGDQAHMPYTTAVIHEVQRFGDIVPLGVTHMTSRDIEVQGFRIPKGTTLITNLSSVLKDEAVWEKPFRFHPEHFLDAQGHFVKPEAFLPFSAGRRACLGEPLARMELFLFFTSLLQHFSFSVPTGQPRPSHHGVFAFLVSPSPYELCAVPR

IC50 [1] | IC50 [2] | IC50 [3] | IC50 [4] | IC50 [5] | IC50 [6] | Structure (SMILES)
5.1 nM | – | – | – | – | – | C[C@]1(c2cc(NC(=O)c3cnc(CF)cn3)ccc2F)N=C(N)O[C@@H]2CCC(F)(F)[C@@H]21 [Example 5, 5-Fluoromethyl-pyrazine-2-carboxylic acid [3-((4S,4aR,7aR)-2-amino-5,5-difluoro-4-methyl-4,4a,5,6,7,7a-hexahydro-cyclopenta[e][1,3]oxazin-4-yl)-4-fluoro-phenyl]-amide]
350 nM | 1000 to 10000 nM | 105000 nM | 1000 to 10000 nM | > 200000 nM | > 10000 nM | C[C@]1(c2cc(NC(=O)c3ccc(Cl)s3)ccc2F)N=C(N)O[C@@H]2CCCC(F)(F)[C@@H]21 [Example 9, 5-Chloro-thiophene-2-carboxylic acid [3-((4S,4aR,8aR)-2-amino-5,5-difluoro-4-methyl-4a,5,6,7,8,8a-hexahydro-4H-benzo[e][1,3]oxazin-4-yl)-4-fluoro-phenyl]-amide]
4.9 nM | – | – | – | – | – | C[C@]1(c2cc(NC(=O)c3ccc(Cl)cn3)ccc2F)N=C(N)O[C@@H]2CCCC(F)(F)[C@@H]21 [Example 7, 5-Chloro-pyridine-2-carboxylic acid [3-((4S,4aR,8aR)-2-amino-5,5-difluoro-4-methyl-4a,5,6,7,8,8a-hexahydro-4H-benzo[e][1,3]oxazin-4-yl)-4-fluoro-phenyl]-amide]
1.9 nM | – | – | – | – | – | C[C@]1(c2cc(NC(=O)c3ccc(Cl)cn3)ccc2F)N=C(N)O[C@@H]2CCC(F)(F)[C@@H]21 [Example 3]
5.5 nM | – | – | – | – | – | C[C@]1(c2cc(NC(=O)c3cnc(C#N)cn3)ccc2F)N=C(N)O[C@@H]2CCC(F)(F)[C@@H]21 [Example 6, 5-Cyano-pyrazine-2-carboxylic acid [3-((4S,4aR,7aR)-2-amino-5,5-difluoro-4-methyl-4,4a,5,6,7,7a-hexahydro-cyclopenta[e][1,3]oxazin-4-yl)-4-fluoro-phenyl]-amide]
8.9 nM | – | 183000 nM | – | > 200000 nM | – | CC(F)(F)c1cnc(C(=O)Nc2ccc(F)c([C@@]3(C)N=C(N)O[C@@H]4CCC(F)(F)[C@@H]43)c2)cn1 [Example 4, 5-(1,1-Difluoro-ethyl)-pyrazine-2-carboxylic acid [3-((4S,4aR,7aR)-2-amino-5,5-difluoro-4-methyl-4,4a,5,6,7,7a-hexahydro-cyclopenta[e][1,3]oxazin-4-yl)-4-fluoro-phenyl]-amide]
